Measured values taken from ChEMBL document CHEMBL4610010, “Metachromins X and Y from a marine sponge Spongia sp. and their effects on cell cycle progression” (Bioorg Med Chem, 2020).
Counter-ions that a name gives are not always drawn. Active and inactive are the calls of the source. The calls are words filed in the database; no cut-off is given here.

Assays:
[1] = tested on: HeLa/Fucci2; experiment: Antiproliferative activity against human HeLa/Fucci2 cells assessed as inhibition of cell viability incubated for 3 days by MTT assay; format: functional, cell-based; details: HeLa/Fucci2, 72 h
[2] = tested on: HeLa/Fucci2; experiment: Induction of cell cycle arrest in human HeLa/Fucci2 cells assessed as accumulation at S/G2/M phase at 56 uM measured after 68 hrs by Time-lapse imaging analysis based fluorescent microscopic method; format: functional
[3] = tested on: HeLa/Fucci2; experiment: Induction of cell cycle arrest in human HeLa/Fucci2 cells assessed as accumulation at G1 phase at 56 uM incubated for 3 days by flow cytometric analysis (reference value: 39.4%); format: functional
[4] = tested on: HeLa/Fucci2; experiment: Induction of cell cycle arrest in human HeLa/Fucci2 cells assessed as accumulation at G1/S phase at 56 uM incubated for 3 days by flow cytometric analysis (reference value: 40.2%); format: functional
[5] = tested on: HeLa/Fucci2; experiment: Induction of cell cycle arrest in human HeLa/Fucci2 cells assessed as accumulation at S/G2/M phase at 56 uM incubated for 3 days by flow cytometric analysis (reference value: 20.4%); format: functional

Structure (SMILES) | IC50 [1] [µM] | Activity [2] | Activity [3] [%] | Activity [4] [%] | Activity [5] [%]
COc1cccc2c1C(=O)c1c(O)c3c(c(O)c1C2=O)C[C@@](O)(C(=O)CO)C[C@@H]3O[C@H]1C[C@H](N)[C@H](O)[C@H](C)O1 [DOXORUBICIN HYDROCHLORIDE] | 2 |  |  |  | 
COC1=CC(=O)C(O)=C(C/C=C(\C)CCC2=C(C)CCCC2(C)C)C1=O | 64 | Active | 7.6 | 4.3 | 88
COC1=CC(=O)C2=C(C=CC(C)(CC[C@@]3(C)CCC=C(C)[C@H]3C)O2)C1=O (some centres not stated) | 73 | inactive |  |  | 
COC1=CC(=O)C(O)=C(C/C=C(\C)CC[C@@]2(C)CCC=C(C)[C@H]2C)C1=O [METACHROMIN C] | 53 | Active |  |  | 

The next lines start with results.

IC50 [1] [µM] | Structure (SMILES) | Activity [2] | Activity [3] [%] | Activity [4] [%] | Activity [5] [%]
89 | COc1cc(OC)c2c(c1O)C=C[C@](C)(CC[C@@]1(C)CCC=C(C)[C@H]1C)O2 | inactive |  |  | 
76 | COC1=CC(=O)C2=C(C=CC(C)(CCC3=C(C)CCCC3(C)C)O2)C1=O (racemic) | inactive | 21.5 | 23.4 | 55
